Assay [1] has as its system Trichophyton mentagrophytes. In words: guinea pig trichophytosis model, external application. In kind it is in vivo. The following applies: externally once daily. As for the experimental part: Furthermore, the novel compounds were tested in the guinea pig trichophyt is model (Trichophyton mentagrophytes; cf. Heffter-Heubner: Handbuch der experimentellen Pharmakologie, Volume XVI/11A, Springer Verlag, Berlin, Heidelberg, New York, 1967), in which the compounds were applied externally in the form of 0.2, 0.5 and 1% strength suspensions. Application was effected once daily for 4 and 7 days respectively. After the 4th and 7th day of treatment, and 7 days after the last treatment, hairs or scales were pulled off at from 3 to 5 points in the infected area in each animal, and were incubated in Sabourand dextrose bouillon.
Evaluation was carried out by monitoring fungal growth after incubation for 8 days.

For assay [2], the system named is Trichophyton mentagroph. ATCC 4807. In words: in vitro antimicrobial activity, agar dilution test (minimum inhibitory concentrations). In kind it is cell-based, Trichophyton mentagrophytes. As for the experimental part: (§1) The in vitro antimicrobial activity against microorganisms was determined in the agar dilution test (P. Klein, loc. cit.).
(In agar dilution, organisms are placed on agar that contains the substance at set levels.)

Assay [3] has as its system Candida albicans ATCC 14052. Described as above. In kind it is cell-based. The procedure:
as §1

Assay [4] concerns Epidermophyton floccosum ATCC 10227. Described as above. In kind it is cell-based. The procedure:
as §1

In assay [5] the test system is Mikrosporon ferrugineum CBS 317.31. Described as above. In kind it is cell-based. The procedure: as §1
Where [6] appears, read: 0.2% suspension, 7 days after treatment.
The mark [7] stands for this setting: 1.0% suspension, 7 days after treatment.

From patent US4487965A, “Trans-3-(4'-tert.-Butylcyclohex-1'yl)-2-methyl-1-dialkylaminopropanes, their preparation and their use as drugs” (BASF Aktiengesellschaft, priority 1982, dated 1984) come the findings set out here.

Each structure is given as a SMILES string. A value given as a limit tells only on which side of the number the result lay.

As for `Clc1ccccc1C(c1ccccc1)(c1ccccc1)n1ccnc1` [Clotrimazole, reference compound], the “fraction of animals in which infection was observed” value (from here on “fraction of animals”) in assay [1] (0.2% suspension, 4 days) is listed as 3/5; in assay [1] (0.2% suspension, 7 days) it was 3/5; in assay [1] (setting [6]), 3/5; in assay [1] (1.0% suspension, 4 days) it was 2/5; in assay [1] (1.0% suspension, 7 days) it was 0/5; in assay [1] (setting [7]) it was 3/5.
As for `CCCN(CCC)CC(C)C[C@H]1CC[C@H](C(C)(C)C)CC1` (stereo partly drawn) [Example 1, trans-3-(4'-tert.-Butylcyclohex-1'-yl)-2-methyl-1-(N-di-n-propylamino)-propane], the Minimum inhibitory concentrations in assay [2], in assay [3], in assay [4] and in assay [5] was less than 0.125 each time. Further, the “fraction of animals” value in assay [1] (0.2% suspension, 4 days) is recorded as 3/5; in assay [1] (0.2% suspension, 7 days), 2/5; in assay [1] (setting [6]), 1/5; in assay [1] (0.5% suspension, 4 days) it was 0/5; in assay [1] (0.5% suspension, 7 days), 0/5; in assay [1] (0.5% suspension, 7 days after treatment) it was 0/5. Moreover, the “fraction of animals” value in assay [1] (1.0% suspension, 4 days) is on record as 1/5; in assay [1] (1.0% suspension, 7 days) it was 0/5; in assay [1] (setting [7]), 0/5.
As for `CCCN(CC)CC(C)C[C@H]1CC[C@H](C(C)(C)C)CC1` (stereo partly drawn) [Example 2, trans-3-(4'-tert.-Butylcyclohex-1'-yl)-2-methyl-1-(N-ethyl-N-n-propylamino)-propane], the Minimum inhibitory concentrations in assay [2] is 0.25; in assay [3], 1; in assay [4], 0.25; in assay [5] it was less than 0.125.
Take `Cc1cccc(N(C)C(=S)Oc2ccc3ccccc3c2)c1` [Tolnaftate, reference compound]: the “fraction of animals” value in assay [1] (1.0% suspension, 4 days) is reported as 0/9; in assay [1] (1.0% suspension, 7 days) it was 0/9; in assay [1] (setting [7]), 2/9.
